From PubChem BioAssay AID1996
Values after ≈ are worked out from the molar mass of the structure shown.

Conditions: buffer; pH 7.4; 200.0 µM

Row | Compound | solubility kinetic [µg/mL]
1 | O=C(/C=C/c1ccco1)N1CCN(S(=O)(=O)c2ccccc2)CC1 | > 52
2 | Cc1c(C(=O)C(=O)N2c3ccccc3CC2C)c2ccccc2n1C (centres undefined) | 1.6 (≈ 4.81 µM)
3 | Cc1ccc(S(=O)(=O)NCc2ccccc2C)cc1 | 20.4 (≈ 74.1 µM)
4 | COC(=O)CC1C(=O)NCCN1C(=O)c1ccc(Cl)cc1 (centres undefined) | > 46.6
5 | O=C(NCc1ccc(F)cc1)Nc1ccccc1 | 9.3 (≈ 38.1 µM)
6 | Cc1nc2c(C)c(C)c(C)c(C)c2nc1C | < 0.2
7 | COC(=O)c1c(C)[nH]c(C(=O)OCC(=O)NC(C)(C)C)c1C | > 46.6
8 | Cc1ccc(OCC(=O)N2c3ccccc3CC2C)c([N+](=O)[O-])n1 (centres undefined) | 21.3 (≈ 65.1 µM)
9 | O=C(O)Cn1nc(-c2ccccc2)cc1-c1ccccc1 | > 41.7
10 | COc1ccc(NC(=O)C2CCCN(S(C)(=O)=O)C2)c(OC)c1 (centres undefined) | > 51.4
11 | Cc1ccsc1C(=O)NCC(=O)OCc1ccccc1 | > 43.4
12 | COC(=O)c1ccc(N2CCS(=O)(=O)CC2)cc1 | > 40.4
13 | Nc1nc(NCc2ccccc2)nc(NCCO)c1[N+](=O)[O-] | 43.4 (≈ 143 µM)
14 | O=C(Cc1cccc2ccccc12)NCC(=O)Nc1ccccc1F | 10.6 (≈ 31.5 µM)
15 | O=C(NCc1ccc2c(c1)OCO2)Nc1ccc2nsnc2c1 | 2.5 (≈ 7.61 µM)
16 | O=C(CCNS(=O)(=O)c1ccccc1F)OCc1ccccc1Cl | 34.5 (≈ 92.8 µM)
17 | CC(=O)c1cn(-c2ccc(Cl)cc2)c(=O)[nH]c1=O | 33.7 (≈ 127 µM)
18 | COC(=O)c1sccc1NC(=O)Nc1ccc(F)cc1F | 26.6 (≈ 85.2 µM)
19 | CC1=C(C(=O)OCC2CCCCC2)C(c2cccc(O)c2)NC(=O)N1 (centres undefined) | 37.3 (≈ 108 µM)
20 | CN(C)C(=O)COC(=O)c1ccccc1NC(=O)c1ccco1 | > 47.4
21 | O=c1cc(-c2ccccc2)nc(SCc2ccccc2F)[nH]1 | < 0.3
22 | CNC(=O)COc1ccc2oc3c(c2c1)CCCC3 | 31 (≈ 120 µM)
23 | CCCCc1nnc(NC(=O)C2=COCCO2)s1 | > 40.4
24 | Cc1cc(Cl)cc(C)c1OCCNCc1ccccc1.O=C(O)C(=O)O | 44.5

Row | Compound | solubility kinetic [µg/mL]
25 | O=C(c1cccc([N+](=O)[O-])c1)N1CC2C3C=CC(C3)C2C1 (centres undefined) | > 42.6
26 | CCC(=O)c1ccc(OCC(=O)N2CCN(CC(=O)Nc3ccccc3C(F)(F)F)CC2)cc1 | > 71.6
27 | Cc1ccc(CC(=O)N2CCN(C(=O)C3CCCO3)CC2)cc1 (centres undefined) | 43.2 (≈ 137 µM)
28 | Cc1noc(C(=O)Nc2cccc(Cl)c2)c1Cl | 2 (≈ 7.38 µM)
29 | CCOC(=O)c1ccccc1NC(=O)c1ccc2nc[nH]c2c1 | 11.3 (≈ 36.5 µM)
30 | CCC(C)n1c(O)c(C=NCCN2CCOCC2)c(=O)[nH]c1=S (centres undefined) | > 51.1
31 | CCC(C)[C@H](NC(=O)NCCC1=CCCCC1)C(=O)O (some centres undefined) | 38.2 (≈ 135 µM)
32 | CSc1ccc(Cl)c(C(=O)OCC(=O)N(C)CCC#N)c1 | > 49
33 | CC1(C)CC(=O)c2c(Cc3ccccc3)noc2C1 | 33.4 (≈ 131 µM)
34 | Cc1ccc(S(=O)(=O)N2CCC(=O)CC2)cc1 | > 38
35 | COc1ccc(OC)c(NC(=O)COC(=O)COc2ccc(Nc3ccccc3)cc2)c1 | 15.7 (≈ 36 µM)
36 | Cc1cccc(C)c1NC(=O)COC(=O)C1C2CC3OC(=O)C1C3C2 (centres undefined) | > 51.5
37 | O=C(COc1cccnc1[N+](=O)[O-])Nc1cc(Cl)ccc1Cl | 2.9 (≈ 8.48 µM)
38 | O=C(NCCNC(=O)c1ccc(Cl)cc1Cl)c1cnccn1 | 37 (≈ 109 µM)
39 | O=S(=O)(c1cccc(-c2n[nH]c(=S)n2-c2ccccc2Cl)c1)N1CCOCC1 | > 65.5
40 | O=C(O)CSCC(=O)NCc1c(Cl)cccc1Oc1ccccc1 | 52 (≈ 142 µM)
41 | N/C(=N\OC(=O)Cc1ccccc1[N+](=O)[O-])c1ccccn1 | 42.3 (≈ 141 µM)
42 | O=C(c1ccc(Sc2ccccc2)c([N+](=O)[O-])c1)N1CCOCC1 | 49.9 (≈ 145 µM)
43 | CC(C)CCC1(C)NC(=O)N(CC(=O)Nc2ccc3c(c2)OCCO3)C1=O (centres undefined) | 49.6 (≈ 132 µM)
44 | O=C(O)CCN1C(=O)S/C(=C\c2cccnc2)C1=O | > 41.7
45 | Cc1ccc(C(=O)C(=O)c2ccc(C)c(N)c2)cc1N | 35 (≈ 130 µM)
46 | CSCCC(NS(=O)(=O)c1ccccc1F)C(=O)NCC(c1ccco1)N(C)C (centres undefined) | > 66.5
47 | CCOC(=O)N1CCN(CCCc2ccccc2)CC1 | 30.9 (≈ 112 µM)
48 | CC1([N+](=O)[O-])COC2(OC1)C(=O)Nc1ccccc12 (centres undefined) | > 39.6

Row | Compound | solubility kinetic [µg/mL]
49 | Cc1ccc(-c2nc(CNC(=O)c3cc(C)on3)cs2)cc1 | 35.4 (≈ 113 µM)
50 | O=[N+]([O-])c1ccccc1OCCN1CCCC1 | 25.5 (≈ 108 µM)
51 | O=C(COc1ccccc1)NCC1COc2ccccc2O1 (centres undefined) | 44.8 (≈ 150 µM)
52 | CCc1ccc(OCC(=O)Nc2ccncc2)cc1 | > 38.4
53 | CNc1snc(C)c1C(=O)OCC(=O)N(C)c1ccccc1 | > 47.9
54 | CSc1ncc(Cl)c(C(=O)Nc2ccccc2[N+](=O)[O-])n1 | < 0.2
55 | O=C(C[n+]1ccccc1)Nc1ccc(Oc2ccccc2)cc1.[Cl-] | > 51.1
56 | Cc1ccc(CNS(=O)(=O)c2cccc3nsnc23)cc1 | > 47.9
57 | CSC1=NCCN1C(=O)c1ccc(C)cc1 | > 35.1
58 | COc1cccc(Oc2c(C)oc3c(CN4CCCC4)c(O)ccc3c2=O)c1 | 40.6 (≈ 106 µM)
59 | CN(C)CCSc1nc(-c2ccccc2)nc2c1CCCC2 | 17.9 (≈ 57.1 µM)
60 | O=C(Nc1nccs1)c1ccc(-c2ccc(F)c(Cl)c2)o1 | 0.5 (≈ 1.55 µM)
61 | Cc1cccc(C)c1NC(=S)N(CCc1ccncc1)C(C)C | 45.6 (≈ 139 µM)
62 | Nc1[nH]c2cc([N+](=O)[O-])ccc2c1-c1ccccn1 | 1.4 (≈ 5.51 µM)
63 | O=C(Cc1ccccc1[N+](=O)[O-])Nc1ccc2c(c1)OCO2 | 14.6 (≈ 48.6 µM)
64 | O=[N+]([O-])c1ccc(COP(=O)([O-])OCc2ccc([N+](=O)[O-])cc2)cc1.[Na+] | 58.2
65 | NC(=O)c1cn(C2CCCCC2)c2ccccc2c1=O | > 40.5
66 | Cc1cccc(C)c1OCCN1C(=O)NC(C)(c2ccccc2)C1=O (centres undefined) | 5 (≈ 14.8 µM)
67 | O=C1CN(C(=O)COC(=O)c2ccc([N+](=O)[O-])s2)c2ccccc2N1 | 9.3 (≈ 25.7 µM)
68 | CCCCCn1c(C)c2c(OCC)cccc(=O)c2c1C | 9.4 (≈ 32.7 µM)
69 | O=C(O)CCCC(=O)Nc1ccc2c(c1)oc1ccccc12 | > 44.6
70 | Cc1ccc(N2CC(C(=O)NCCN3CCOCC3)CC2=O)cc1C (centres undefined) | > 51.8
71 | CCCCNC(=O)NCCN1CCOCC1 | 31.9 (≈ 139 µM)
72 | Cc1nc(CSc2n[nH]c(=O)n2-c2cccc(F)c2)cs1 | > 48.4

Row | Compound | solubility kinetic [µg/mL]
73 | CSc1ncccc1C(=O)OCC(=O)c1cc(C)n(C)c1C | 3.9 (≈ 12.2 µM)
74 | Cc1ccc(Cl)cc1NC(=O)C1CC(=O)N(C(C)C)C1 (centres undefined) | 34.7 (≈ 118 µM)
75 | CC1(C)CC(NC(=O)Cc2ccc(Cl)cc2)CC(C)(C)N1 | > 46.3
76 | CC(C)(C)c1ccc(NC(=O)c2cc[n+]([O-])cc2)cc1 | 36.1 (≈ 134 µM)
77 | c1ccc(Cn2c(NCc3ccccn3)nc3ccccc32)cc1 | > 47.2
78 | Cc1cc(SCC(=O)N2CCCC2=O)nc2ccccc12 | 11.2 (≈ 37.3 µM)
79 | COc1cc(CNC(=O)C2CC2)ccc1OCc1ccccc1 | 8.4 (≈ 27 µM)
80 | CN(C)/C=N/c1c(C#N)cnn1C | > 26.6
81 | CCOC(=O)c1[nH]cnc1C(=O)Nc1cccc(OC)c1 | 4.4 (≈ 15.2 µM)
82 | Nc1c(Br)cc(Br)cc1CNC1CCC(O)CC1 (centres undefined) | > 56.7
83 | O=C(O)CCSc1nc2ccccc2n1Cc1ccccc1 | 43.7 (≈ 140 µM)
84 | O=C(CNC(=O)c1cccnc1)N/N=C/c1ccc(O)cc1O | > 47.1
85 | CC1CN(C(=O)COC(=O)c2ccc(O)cc2)CC(C)O1 (centres undefined) | 43.8 (≈ 149 µM)
86 | Cc1ccc(N2C(=O)c3cccc([N+](=O)[O-])c3C2=O)cc1C | 23.3 (≈ 78.6 µM)
87 | Fc1cccc2sc(N3CCCC3)nc12 | 17.4 (≈ 78.3 µM)
88 | Cc1nonc1C(=O)N1CCCC(Nc2ccc(C(C)C)cc2)C1 (centres undefined) | 32.8 (≈ 99.9 µM)
89 | CC(=O)c1ccc(-n2c(C)c(C(C)=O)c3cc(O)ccc32)cc1 | < 0.7
90 | CNc1nc(SC)nc2ccccc12 | > 30.8
91 | COc1cccc(NC(=O)C(=O)NCCCn2ccnc2)c1 | 42.2 (≈ 140 µM)
92 | O=C(CSc1nncs1)NCc1ccc(F)cc1 | > 42.5
93 | CCOC(=O)C1CCN(C(=O)/C=C/c2ccc(S(=O)(=O)N3CCOCC3)cc2)CC1 | > 65.5
94 | Cl.N#C/C(=C/c1cc(Cl)c(O)c(Cl)c1)C(=O)N1CCCCC1 | > 54.2
95 | CC(C)c1ccc(NC(=O)Cn2c(=O)oc3cccnc32)cc1 | 7.7 (≈ 24.7 µM)
96 | Oc1ccc(-c2csc(Nc3ccccn3)n2)cc1O | 11.3 (≈ 39.6 µM)

Row | Compound | solubility kinetic [µg/mL]
97 | O=c1cc(NCc2ccccc2)[nH]c(=O)[nH]1 | > 32.6
98 | Fc1ccccc1NC(=S)NCCc1cccc(Cl)c1 | 36.7 (≈ 119 µM)
99 | O=C(NC1CC(=O)c2sccc21)c1cccc(C(F)(F)F)c1 (centres undefined) | > 48.8
100 | COC(=O)c1ccccc1-c1cn(C)c2ccccc2c1=O | > 44
101 | Cc1nc([N+](=O)[O-])cn1CC(=O)Nc1ccc(Cl)cc1 | 6.1 (≈ 20.7 µM)
102 | CNC(=O)CSc1nnc(-c2ccco2)n1-c1cc(C)ccc1C | > 51.4
103 | COCC(=O)Nc1ccc(Br)c(C)c1 | > 38.7
104 | O=C(Nc1ncc([N+](=O)[O-])s1)c1ccccc1Br | 41.1 (≈ 125 µM)
105 | CN(Cc1nc2ccccc2c(=O)[nH]1)C(=O)c1cccc(S(=O)(=O)N2CCc3ccccc32)c1 | 36.5 (≈ 76.9 µM)
106 | Cc1cccc(-n2c(C)nc3ccc(Cl)cc3c2=O)c1 | 22.1 (≈ 77.6 µM)
107 | O=C1CNC(=S)N1CCc1ccc(O)c(O)c1 | 32.3 (≈ 128 µM)
108 | O=C(O)CCc1ccc(S(=O)(=O)Nc2ccccc2N2CCCCC2)cc1 | > 58.3
109 | Cc1cc(C)nc(NC2=NCCN2C(=S)Nc2ccc(C)c(C)c2)n1 | 2.4 (≈ 6.77 µM)
110 | C=CCNC(=S)NCc1ccccc1 | > 30.9
111 | COc1ccc(C(=O)OCC(=O)NC2CCCC2)c(OC)c1OC | > 50.6
112 | CCC(=O)N1CCN=C1SCc1cccc(C(F)(F)F)c1 | 40.8 (≈ 129 µM)
113 | CCSc1nc2ccccc2c(=O)n1Cc1ccc(F)cc1 | < 0.3
114 | CCc1nc2sc3c(c2c(=O)n1CCO)CCC3 | > 39.7
115 | CCNS(=O)(=O)c1ccc(CCC(=O)NCc2cccnc2)cc1 | 35.6 (≈ 102 µM)
116 | C=CCn1c(O)c(C(C)=Nc2ccc3c(c2)CCC3)c(=O)[nH]c1=O | 0.8 (≈ 2.46 µM)
117 | O=C1CSC(=S)N1c1ccc(O)cc1 | 28.1 (≈ 125 µM)
118 | Cc1cc(Cl)ccc1NS(=O)(=O)c1c(C)[nH]c(=O)[nH]c1=O | > 49.5
119 | CCCCOc1ccc(C(=O)NCC(=O)OCC(=O)c2c(N)n(C)c(=O)n(C)c2=O)cc1 | 10.9 (≈ 24.4 µM)
